Results taken from US20240350520A1, “Method to Stimulate the Growth of Veillonella in Human Gut and Increase Athletic Performance” (Mellitas Health Foods, LLC, priority 2023, published 2024).

Tested on: Veillonella in human gut
Test: Veillonella level in human fecal samples by 16S rRNA sequencing before and after 2′-Fucosyllactose supplementation
Assay type: in vivo
From the text: The genus, Veillonella, were quantified through the fecal samples collected by the human subjects. 16S ribosomal RNA (rRNA) sequencing was used to quantify the relative abundance of Veillonella in the human fecal samples. Veillonella levels were expressed as a percentage of total gut bacteria. Veillonella levels were quantified before the supplementation of 2′-Fucosyllactose and also after the supplementation of 2′-Fucosyllactose. The human subjects were asked to take 2′-Fucosyllactose daily doses ranging from 2000 mg to 4500 mg for 20-60 days with liquid and not to change their regular diet during the period. Four healthy subjects were asked to test their fecal samples and determine the baseline level of Veillonella before taking the 2′-Fucosyllactose. After collecting their initial fecal samples, they were instructed to take 2′-Fucosyllactose daily at doses between 2000 mg-4500 mg per day with liquid and not change their regular diet. The subject was asked to stop the supplementation of 2′-Fucosyllactose after 20-60 days. The subjects were instructed to collect their fecal samples immediately after stopping the supplementation and the fecal samples were tested thereafter. The levels of Veillonella in the fecal samples were quantified by 16S ribosomal RNA (rRNA) sequencing.

2′-Fucosyllactose
level of Veillonella (percentage of total gut bacteria) after 2′-Fucosyllactose intake (average of 4 human subjects, fecal samples, oral 2000-4500 mg daily, 30-45 days, 0.018% before intake, P<0.05): 0.046%
change of the level of Veillonella in the human gut (daily dosages of 2000-4500 mg, after 20-60 days): significantly increased
change of the level of Veillonella in the gut (human subjects, supplementation for 30-45 days, FIG. 1): significantly increased
